Here are results for 1 compound from patent US11890299B2, “Ablation agent and methods of use” (HOLOGIC, INC., priority 2019, dated 2024).

For the test, the system named is bovine liver (simulated tissue). Briefly: Bolus / chemical ablation test in sample bovine liver tissue. The source says: For example, a solid active agent (HAuCl4) may be added to water at room temperature, and mixed for approximately ten (10) minutes, then filtered and ready to use. The active agent (HAuCl4) solution may be stored for up to a year without stability issues. The hydrophilic nature of the solution facilitates the delivery and spread of the active agent (HAuCl4) throughout the entire target tissue/cavity, while avoiding formation of lumps in the solution or patches of tissue without the solution when delivered.
FIGS. 2A-C and FIGS. 3-5 illustrate exemplary ablative effects of the active agent (HAuCl4) 300 when applied to a sample tissue. FIG. 2A illustrates a liquid DI water solution of active agent (HAuCl4) 300, a syringe 400 and a sample bovine liver tissue 500. […] FIG. 2C depicts the ablated tissue 500.
Various tests were performed in sample tissue 500. For example, in some tests the active agent (HAuCl4) 300 (1 ml) was delivered into the tissue 500 having a constant time of exposure (e.g., 2 minutes at room temperature) but the bolus size (ablated volume) was measured under different active agent (HAuCl4) concentrations (FIG. 3). Data contained in FIG. 3 was measured three times and obtained the average value for the graph, as shown. As known in the art, bolus tests are common to understand diffusion and effectiveness of ablative technologies.
In another test, the active agent (HAuCl4) concentration was maintained constant at 0.5% in an injected 1 ml into the sample tissue but the bolus size was measured at different times (FIG. 4). Data reference in FIG. 4 was measured five times and obtained the average value for the graph, as shown. […] Additionally, the bolus size is time dependent but after 3 minutes, 1 ml of 0.5% HAuCl4 DI-water solution stopped the reaction because the solution is not strong enough to penetrate the tissue further. Therefore, the active agent (HAuCl4) chemical ablation is quantity and time dependent.
FIG. 5 illustrates sample tissue ablation profiles measured and characterized for a range of active agent (HAuCl4) concentration (0.10%, 0.25% and 1% of HAuCl4 within 2 minutes, and a variety of bolus sizes). Optimization was performed to select 0.5% of HAuCl4 in order to achieve desirable ablation profile (rage of 4-9 mm ablation depth of tissue). Additional optimization could be performed to achieve shallower profiles (if desired).

With `[Au+3].[Cl-].[Cl-].[Cl-].[Cl-].[H+]` [HAuCl4, chloroauric acid], the “penetration depths in the tissue from the surface of the tissue” value (0.5% HAuCl4 diluted in water, up to three (3) minutes of exposure) was 4-9 mm. Besides, the “ablation depth of tissue (ablation profile)” value (0.5% of HAuCl4 selected by optimization) is 4-9 mm. The “bolus size (ablated volume) versus concentration” value (1 ml injected, 2 minutes at room temperature, different concentrations (FIG. 3)) is recorded as “increases with the active agent (HAuCl4) concentration”. The “time after which the reaction stopped (bolus size versus time)” value (1 ml of 0.5% HAuCl4 DI-water solution (FIG. 4)) was 3 min.
